Source: patent US9695155B2, “Herbicidal substituted pyrimidinyloxy benzene compounds” (E. I. DU PONT DE NEMOURS AND COMPANY, priority 2013, dated 2017)

Legend:
[1] = test system: wild oat; assay: Test D preemergence; type: in vivo, Avena fatua; conditions: Avena fatua, pre-emergence, scale 0-100, read-out: Plant response rating, Oat, Wild
Method in brief: (§1)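 Values are 0–100 visual control ratings (0 none, 100 complete) given 7–21 days after application. Soil for preemergence was silt loam; postemergence plants stood 2–18 cm tall.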

[2] = test system: wild radish; assay: Test D postemergence; type: in vivo, Raphanus raphanistrum; conditions: Raphanus raphanistrum, post-emergence, scale 0 to 100 (0 no effect, 100 complete control), read-out: Plant response rating, Radish, Wild
Method in brief: as §1

[3] = test system: chamomile; assay: Test D preemergence; type: in vivo, Matricaria inodora; conditions: Tripleurospermum inodorum, pre-emergence, scale 0-100, read-out: Plant response rating, Chamomile
Method in brief: as §1

[4] = test system: wild mustard; assay: Test D preemergence; type: in vivo, Sinapis arvensis; conditions: Brassica, pre-emergence, scale 0-100, read-out: Plant response rating, Mustard, Wild
Method in brief: as §1

[5] = test system: sandbur; assay: Test E postemergence; type: in vivo, Cenchrus echinatus; conditions: Cenchrus echinatus, post-emergence, read-out: Plant response rating, Sandbur
Method in brief: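 Test chemicals formulated in a non-phytotoxic solvent mixture containing a surfactant were applied preemergence to seeds in silt loam soil or postemergence to plants at the 1- to 4-leaf stage in potting mix. After 14 to 21 days in a greenhouse, injury was visually rated against controls on a 0-100 scale (0 = no effect, 100 = complete control).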

[6] = test system: deadnettle; assay: Test D postemergence; type: in vivo, Lamium amplexicaule; conditions: Lamium amplexicaule, post-emergence, scale 0 to 100 (0 no effect, 100 complete control), read-out: Plant response rating, Deadnettle
Method in brief: as §1

[7] = test system: field violet; assay: Test D postemergence; type: in vivo, Viola arvensis; conditions: Viola arvensis, post-emergence, scale 0 to 100 (0 no effect, 100 complete control), read-out: Plant response rating, Field Violet
Method in brief: as §1

[8] = test system: windgrass; assay: Test D preemergence; type: in vivo, Apera spica-venti; conditions: Apera spica-venti, pre-emergence
Method in brief: as §1

[9] = test system: oilseed rape; assay: Test D preemergence; type: in vivo, Brassica napus; conditions: Brassica napus, pre-emergence, scale 0-100, read-out: Plant response rating, Oilseed Rape
Method in brief: as §1

[10] = test system: green foxtail; assay: Test D postemergence; type: in vivo, Setaria viridis; conditions: Setaria viridis, post-emergence, scale 0 to 100 (0 no effect, 100 complete control), read-out: Plant response rating, Foxtail, Green
Method in brief: as §1

[11] = test system: wild radish; assay: Test D preemergence; type: in vivo, Raphanus raphanistrum; conditions: Raphanus raphanistrum, pre-emergence
Method in brief: as §1

[12] = test system: speedwell; assay: Test D preemergence; type: in vivo, Veronica persica; conditions: Veronica persica, pre-emergence
Method in brief: as §1

[13] = test system: wild buckwheat; assay: Test D preemergence; type: in vivo, Polygonum convolvulus; conditions: Fallopia convolvulus, pre-emergence, scale 0-100, read-out: Plant response rating, Buckwheat, Wild
Method in brief: as §1

[14] = test system: wild mustard; assay: Test D postemergence; type: in vivo, Sinapis arvensis; conditions: Brassica, post-emergence, scale 0 to 100 (0 no effect, 100 complete control), read-out: Plant response rating, Mustard, Wild
Method in brief: as §1

Q: How did the pest or weed control at 31 g/ha ([1]; 31 g ai/ha) turn out when N#Cc1cccc(Oc2ncc(Cl)cn2)c1-n1cc(C(F)(F)F)cn1 [Compound 58, 3-[(5-chloro-2-pyrimidinyl)oxy]-2-[4-(trifluoromethyl)-1H-pyrazol-1-yl]benzonitrile] was run?
A: 15%

Q: And the pest or weed control at 62 g/ha ([1]; 62 g ai/ha)?
A: 25%

Q: And the pest or weed control at 125 g/ha ([1]; 125 g ai/ha)?
A: 60%

Q: What about the pest or weed control at 250 g/ha ([1]; 250 g ai/ha) of the same compound?
A: 100%

Q: And the pest or weed control at 31 g/ha ([2]; 31 g ai/ha)?
A: 65%

Q: And the pest or weed control at 62 g/ha ([2]; 62 g ai/ha)?
A: 70%

Q: What about the pest or weed control at 125 g/ha ([2]; 125 g ai/ha) of the same compound?
A: 90%

Q: And the pest or weed control at 250 g/ha ([2]; 250 g ai/ha)?
A: 95%

Q: What about the pest or weed control at 31 g/ha ([3]; 31 g ai/ha) of the same compound?
A: 30%

Q: And the pest or weed control at 62 g/ha ([3]; 62 g ai/ha)?
A: 50%

Q: And the pest or weed control at 125 g/ha ([3]; 125 g ai/ha)?
A: 80%

Q: And the pest or weed control at 250 g/ha ([3]; 250 g ai/ha)?
A: 100%

Q: And the pest or weed control at 31 g/ha ([4]; 31 g ai/ha)?
A: 90%

Q: What about the pest or weed control at 62 g/ha ([4]; 62 g ai/ha) of the same compound?
A: 100%

Q: What about the pest or weed control at 125 g/ha ([4]; 125 g ai/ha) of the same compound?
A: 100%

Q: What about the pest or weed control at 250 g/ha ([4]; 250 g ai/ha) of the same compound?
A: 100%

Q: And the pest or weed control at 31 g/ha ([5]; Postemergence, 31 g ai/ha, scale 0 to 100)?
A: 10%

Q: And the pest or weed control at 62 g/ha ([5]; Postemergence, 62 g ai/ha, scale 0 to 100)?
A: 10%

Q: And the pest or weed control at 125 g/ha ([5]; Postemergence, 125 g ai/ha, scale 0 to 100)?
A: 20%

Q: What about the pest or weed control at 250 g/ha ([5]; Postemergence, 250 g ai/ha, scale 0 to 100) of the same compound?
A: 55%

Q: What about the pest or weed control at 16 g/ha ([5]; postemergence, 16 g ai/ha, scale 0 to 100, 0 no effect, 100 complete control) of the same compound?
A: 0%

Q: What about the pest or weed control at 31 g/ha ([6]; 31 g ai/ha) of the same compound?
A: 80%

Q: And the pest or weed control at 62 g/ha ([6]; 62 g ai/ha)?
A: 100%

Q: And the pest or weed control at 125 g/ha ([6]; 125 g ai/ha)?
A: 100%

Q: And the pest or weed control at 250 g/ha ([6]; 250 g ai/ha)?
A: 100%

Q: And the pest or weed control at 31 g/ha ([7]; 31 g ai/ha)?
A: 100%

Q: What about the pest or weed control at 62 g/ha ([7]; 62 g ai/ha) of the same compound?
A: 100%

Q: What about the pest or weed control at 125 g/ha ([7]; 125 g ai/ha) of the same compound?
A: 100%

Q: What about the pest or weed control at 250 g/ha ([7]; 250 g ai/ha) of the same compound?
A: 100%

Q: And the pest or weed control at 31 g/ha ([8]; 31 g ai/ha, scale 0 (no effect) to 100 (complete control), read-out: Plant response rating, Windgrass)?
A: 100%

Q: And the pest or weed control at 62 g/ha ([8]; 62 g ai/ha, scale 0-100, read-out: Plant response rating, Windgrass)?
A: 100%

Q: And the pest or weed control at 125 g/ha ([8]; 125 g ai/ha, scale 0-100, read-out: Plant response rating, Windgrass)?
A: 100%

Q: And the pest or weed control at 250 g/ha ([8]; 250 g ai/ha, scale 0-100, read-out: Plant response rating, Windgrass)?
A: 100%

Q: And the plant injury at 31 g/ha ([9]; 31 g ai/ha)?
A: 100%

Q: What about the plant injury at 62 g/ha ([9]; 62 g ai/ha) of the same compound?
A: 100%

Q: And the plant injury at 125 g/ha ([9]; 125 g ai/ha)?
A: 100%

Q: What about the plant injury at 250 g/ha ([9]; 250 g ai/ha) of the same compound?
A: 100%

Q: What about the pest or weed control at 31 g/ha ([10]; 31 g ai/ha) of the same compound?
A: 20%

Q: What about the pest or weed control at 62 g/ha ([10]; 62 g ai/ha) of the same compound?
A: 40%

Q: What about the pest or weed control at 125 g/ha ([10]; 125 g ai/ha) of the same compound?
A: 65%

Q: And the pest or weed control at 250 g/ha ([10]; 250 g ai/ha)?
A: 80%

Q: And the pest or weed control at 31 g/ha ([11]; 31 g ai/ha, scale 0 (no effect) to 100 (complete control), read-out: Plant response rating, Radish, Wild)?
A: 100%

Q: What about the pest or weed control at 62 g/ha ([11]; 62 g ai/ha, scale 0-100, read-out: Plant response rating, Radish, Wild) of the same compound?
A: 100%

Q: What about the pest or weed control at 125 g/ha ([11]; 125 g ai/ha, scale 0-100, read-out: Plant response rating, Radish, Wild) of the same compound?
A: 100%

Q: And the pest or weed control at 250 g/ha ([11]; 250 g ai/ha, scale 0-100, read-out: Plant response rating, Radish, Wild)?
A: 100%

Q: What about the pest or weed control at 31 g/ha ([12]; 31 g ai/ha, scale 0 (no effect) to 100 (complete control), read-out: Plant response rating, Speedwell) of the same compound?
A: 100%

Q: What about the pest or weed control at 62 g/ha ([12]; 62 g ai/ha, scale 0-100, read-out: Plant response rating, Speedwell) of the same compound?
A: 100%

Q: What about the pest or weed control at 125 g/ha ([12]; 125 g ai/ha, scale 0-100, read-out: Plant response rating, Speedwell) of the same compound?
A: 100%

Q: What about the pest or weed control at 250 g/ha ([12]; 250 g ai/ha, scale 0-100, read-out: Plant response rating, Speedwell) of the same compound?
A: 100%

Q: And the pest or weed control at 31 g/ha ([13]; 31 g ai/ha)?
A: 100%

Q: And the pest or weed control at 62 g/ha ([13]; 62 g ai/ha)?
A: 100%

Q: What about the pest or weed control at 125 g/ha ([13]; 125 g ai/ha) of the same compound?
A: 100%

Q: What about the pest or weed control at 250 g/ha ([13]; 250 g ai/ha) of the same compound?
A: 100%

Q: What about the pest or weed control at 31 g/ha ([14]; 31 g ai/ha) of the same compound?
A: 85%

Q: What about the pest or weed control at 62 g/ha ([14]; 62 g ai/ha) of the same compound?
A: 100%

Q: What about the pest or weed control at 125 g/ha ([14]; 125 g ai/ha) of the same compound?
A: 100%

Q: And the pest or weed control at 250 g/ha ([14]; 250 g ai/ha)?
A: 100%
